Values quoted from earlier work, collected in patent publication US20110311589A1 (priority 2008, published 2011).

Tested on: helminthiasis
Conditions: in vivo

## c1ccc([C@H]2CN3CCSC3=N2)cc1 [Levamisole]
  Dosages too low, ineffective in treating helminthiasis: less than 6 mg per kg of body weight
